Test results: US20230111910A1, “PD-1/PD-L1 INHIBITOR, PREPARATION METHOD THEREFOR, AND USE THEREOF” (SHANGHAI SYNERGY PHARMACEUTICAL SCIENCES CO., LTD., priority 2020, published 2023)
Counter-ions that a name gives are not always drawn. Like-named read-outs stand apart in the source and are kept apart here.

Experiments:
[1] = Pharmacokinetic experiment in rats, LC/MS/MS; assay type: in vivo; conditions: SD rats; for AUC: read-out: Area under the curve (AUC, ng/mL.h)
Procedure: Taking SD rats as an example, the drug concentrations in the plasma of rats at different times after i.g. and i.v. administration of compounds of Examples 1, 5, 6, 8, 12, 13, 15, 18, 19, 22, 25, 27 and 29, respectively, were determined by the liquid chromatography-tandem mass spectrometry (LS/MS/MS) method, and the relevant pharmacokinetic parameters were calculated to evaluate the pharmacokinetic properties of example compounds of the present invention in rats.
Healthy adult SD rats, SPF grade, male, purchased from Sippe-Bk Lab Animal Co., Ltd., Shanghai, license number SCXK (Shanghai) 2018-0006, animal certificate number: 20180006006321.
A certain amount of compound was weighed, dissolved in 5% dimethyl sulfoxide (DMSO), subjected to vortex and sonication, added with 0.5% sodium carboxymethyl cellulose (CMC-Na), and sonicated, to prepare a homogeneous solution.
Before administration and 5 min, 15 min, 0.5 h, 1 h, 2 h, 4 h, 6 h, 8 h and 24 h after administration, orbital blood was collected, 0.2 milliliters (mL) of blood being collected each time, and placed in an anticoagulant tube, mixed well, and stored in a −20° C. refrigerator for later use.
The content of the compound in rat whole blood was determined by liquid chromatography-tandem mass spectrometry (LS/MS/MS).
The pharmacokinetic parameters of the compounds after administration were calculated using the non-compartmental model of WinNonLin5.3 software.

[2] = system: mouse colon cancer MC38-hPD-L1; assay: In vivo efficacy in mice, MC38-hPD-L1 subcutaneous tumor model; conditions: 50 mg/kg i.g., twice a day, MC38-hPD-L1 in C57BL/6 mice
Source text: Under sterile conditions, mouse colon cancer MC38-hPD-L1 in logarithmic growth phase was digested into single cells and then transplanted into the right back of C57BL/6 mice subcutaneously. Each mouse was inoculated with 1×10^6 cells in a volume of […] (μL). After inoculation, when the tumor grows to 100 cubic millimeters (mm^3), the mice were randomly divided into 9 groups, with 8 mice in each group, for drug efficacy experiments. The positive control was human programmed death receptor ligand (PD-L1) antibody. The negative control group was given the same amount of vehicle.
C57BL/6 mice, SPF grade, 6-8 weeks old, female, purchased from Beijing Vital River Laboratory Animal Technology Co., Ltd., license number SCXK […] 2017-0011, animal certificate number: 20170011003865.
An appropriate amount of compound was weighted, dissolved in 5% dimethyl sulfoxide (DMSO), subjected to vortex and sonication, added with 0.5% sodium carboxymethyl cellulose (CMC-Na), and sonicated, to prepare a solution of 5 mg per milliliter (mg/mL).

[3] = Acute toxicity test in mice, single dose, 14 days observation; assay type: in vivo; conditions: both sexes, mouse, in vivo; ICR mice, single administration; read-out: median lethal dose (LD50)
Procedure: (§1) This experiment aims to test the toxic effects of the compounds in mice.
(§2) ICR mice, SPF grade, 6-8 weeks old, half male and half […], purchased from Sippe-Bk Lab Animal Co., Ltd., Shanghai, license number SCXK (Shanghai) 2018-0006, animal certificate number: 20180006010983.
(§3) ICR mice were administered different doses of compounds at a single time, and were continuously observed for 14 days. The animal death, poisoning reaction, body weight change, diet, appearance, behavior, etc. were recorded. At the end point, the animals were dissected, and the organs were taken for histopathological examination.

ICR mice = assay: as above; assay type: in vivo; conditions: within 14 days from administration
Procedure: as §1, §2, §3

| Compound | Tumor growth inhibition rate [2] | LD50 at 14 days [3] | body weight and behavior compared with control group (ICR mice) | further results |
| --- | --- | --- | --- | --- |
| Cc1c(NC(=O)c2nc3c(n2C)CCN(CC(C)O)C3)cccc1-c1nccc(NC(=O)c2nc3c(n2C)CCN(C)C3)c1Cl (stereo not shown) [Example 15] | 86% | – | – | Area under the curve (AUC, ng/mL.h) ([1]; i.v., 2 mg/kg): 0.59936 µg·h/mL; Half life (T1/2, h) ([1]; i.v., 2 mg/kg): 1.76 h; Bioavailability (F%) ([1]; p.o. 10 mg/kg vs i.v. 2 mg/kg): 58%; Area under the curve (AUC, ng/mL.h) ([1]; p.o. (i.g.), 10 mg/kg): 1.61828 µg·h/mL; Blood concentration (Cmax, ng/mL) ([1]; p.o. (i.g.), 10 mg/kg): 377.6 ng/mL |
| Cc1c(NC(=O)c2nc3c(n2C)CCN(C[C@H](C)O)C3)cncc1-c1cccc(NC(=O)c2nc3c(n2C)CCN(C2COC2)C3)c1Cl [Example 23, (S)—N-(5-(2-chloro-3-(1-methyl-5-(oxetan-3-yl)-4,5,6,7-tetrahydro-1H-imidazo[4,5-c]pyridine-2-carboxamido)phenyl)-4-methylpyridin-3-yl)-5-(2-hydroxypropyl)-1-methyl-4,5,6,7-tetrahydro-1H-imidazo[4,5-c]pyridine-2-carboxamide] | 81% | – | – | – |
| Cc1c(Nc2nccc3cc(CN4CC[C@@H](O)C4)cnc23)cccc1-c1cncc(-c2nc3cc(CN4CC[C@@H](C(=O)O)C4)cc(Cl)c3o2)c1C [Example 11, (R)-1-(((7-chloro-2-(5-(3-((3-((((R)-3-hydroxypyrrolidin-1-yl)methyl)-1,7-naphthyridin-8-yl)amino)-2-methylphenyl)-4-methylpyridin-3-yl)benzo[d]oxazol-5-yl)methyl)pyrrolidine-3-carboxylic acid trifluoroacetate] | 85% | > 1000 mg/kg | no abnormal body weight or behavior | – |
| Cc1c(NC(=O)c2nc3c(s2)CN(C)CC3)cccc1-c1cccc(-c2nc3cc(CN4CC[C@@H](C(=O)O)C4)cnc3o2)c1C [Example 4, (R)-1-(((2-(2,2′-dimethyl-3′-(5-methyl-4,5,6,7-tetrahydrothiazolo[5,4-c]pyridine-2-carboxamido))-[1,1′-biphenyl]-3-yl)oxazolo[5,4-b]pyridin-6-yl)methyl)pyrrolidine-3-carboxylic acid] | 82% | > 1000 mg/kg | no abnormal body weight or behavior | – |
| Cc1c(NC(=O)c2nc3c(s2)CN(C)CC3)cccc1-c1cncc(-c2nc3cc(CN4CC[C@@H](C(=O)O)C4)cc(Cl)c3o2)c1C [Example 9] | 78% | > 1000 mg/kg | no abnormal body weight or behavior | – |
| Cc1c(NC(=O)c2nc3c(n2C)CCN(C[C@H](C)O)C3)cncc1-c1cccc(-c2nc3cc(CN4CC[C@@H](C(=O)O)C4)cc(Cl)c3o2)c1C [Example 30, (R)-1-(((7-chloro-2-(3-(5-(5-((S)-2-hydroxypropyl))-1-methyl-4,5,6,7-tetrahydro-1H-imidazo[4,5-c]pyridine-2-carboxamido)-4-methylpyridin-3-yl)-2-methylphenyl)benzo[d]oxazole-5-yl)methyl)pyrrolidine-3-carboxylic acid] | 79% | > 1000 mg/kg | no abnormal body weight or behavior | – |
| CCN1CCc2c(nc(C(=O)Nc3cncc(-c4cccc(NC(=O)c5nc6c(n5C)CCN(CC)C6)c4Cl)c3C)n2C)C1 [Example 27, N-(2-chloro-3-(5-(5-ethyl-1-methyl-4,5,6,7-tetrahydro-1H-imidazo[4,5-c]pyridine-2-carboxamido)-4-methylpyridin-3-yl)phenyl)-5-ethyl-1-methyl-4,5,6,7-tetrahydro-1H-imidazo[4,5-c]pyridine-2-carboxamide] | 80% | – | – | AUC ([1]; male, rat, whole blood, iv, i.v., 2 mg/kg): 0.637 µg·h/mL; half-life ([1]; male, rat, whole blood, iv, i.v., 2 mg/kg, read-out: Half life (T1/2, h) (converted)): 2.26 h; bioavailability ([1]; male, rat, whole blood, po, p.o. 10 mg/kg vs i.v. 2 mg/kg, read-out: Bioavailability (F%)): 46%; AUC ([1]; male, rat, whole blood, po, p.o. (i.g.), 10 mg/kg): 1.46 µg·h/mL; Cmax ([1]; male, rat, whole blood, po, p.o. (i.g.), 10 mg/kg, read-out: Blood concentration (Cmax, ng/mL)): 423 ng/mL |
